As a reminder, the Km is the substrate concentration at which the rate is half of its maximum. Broadly, the kcat is the number of substrate molecules converted per active site and unit of time at saturation.

Data set [1] is described as follows: Absorbance and fluorescence spectra of 5-R-UMP analogues. It counts as physicochemical. The note with it: for λmax: absorbance; for Emmax: fluorescence emission. As for the experimental part:
UV absorbance spectra were recorded on a PerkinElmer Lambda 25 UV-Vis spectrometer at ambient temperature in FarUV quartz cells (path length 1.0 cm). Fluorescence spectra were recorded on a PerkinElmer LS-45 spectrometer at ambient temperature in a quartz micro fluorescence cell (path length 1.0 cm).

Data set [2] is described as follows: Quantum yield determination of nucleotide derivatives. It counts as physicochemical. Conditions: for Q.Y.: in water. As for the experimental part:
Nucleotide derivatives were serially diluted in H2O (10, 20, 30, 40 and 50 μM for absorbance measurements, and 0.2, 0.4, 0.6, 0.8, 1 μM for fluorescence measurements), and UV absorbance and fluorescence emission (with λmax absorbance=λem fluorescence) were recorded for all samples. To determine quantum yields, for each absorbance and fluorescence spectrum the area under the curve (AUC) was calculated by numerical integration, applying the mid-point rule. For each compound, AUCabs and AUCem were then plotted over compound concentration according to AUCabs=A×[conc]+B and AUCem=A′×[conc]+B′. From these linear plots, the gradients A and A′ were extracted, and for each compound the specific quantum yield φs, under these experimental conditions, was calculated as the ratio A′/A. Quantum yields determined with this protocol for two reference compounds, 2-aminopyridine and L-tryptophan (2-aminopyridine: 0.60; L-tryptophan: 0.14) were in exact agreement with literature values. The quantum yields for reference compounds were used to calculate the general quantum yield φg for each nucleotide analogue, according to φg=φref×(A′/A)/(A′/A)ref.
Fluorescent uracil nucleosides and (sugar-)nucleotides can be obtained by connecting a known chromophore/fluorophore via an electronically nonconjugating linker to the natural uracil base (Sinkeldam et al. Chem. Rev. 2010, 110, 2579-2619). The photophysical features of the resulting nucleoside/(sugar-)nucleotide analogue are usually very similar to that of the parent fluorophore (Sinkeldam et al. Chem. Rev. 2010, 110, 2579-2619). In contrast, extending the uracil by electronically conjugating the base to additional aromatic moieties typically generates a new chromophore with unique, and somewhat unpredictable, photophysical characteristics (Sinkeldam et al. Chem. Rev. 2010, 110, 2579-2619). To precisely measure the intensity of the fluorescence emitted by the brightest fluorophores described above, we determined their quantum yield. These measurements were performed in water following the procedure reported by Nighswander-Remper and the results are shown in Table B below. Quantum yield determinations confirmed that 2p and 2q display the highest fluorescence and are 10-fold brighter than any other nucleotide analogues with a compact aryl- or heteroaryl substituent in position 5 that have been reported to date (Sinkeldam et al. Chem. Rev. 2010, 110, 2579-2619). That 2p and 2q absorb and fluoresce at long wavelength is an attractive feature, which makes these fluorophores suitable for analyses in biological environments. Additionally, we found the intensity of the fluorescence emission is conserved for UDP and UTP analogues, thereby providing attractive fluorescence probes candidates for fluorimetric assays.

In data set [3] the target is T1, B. taurus α-1,3-GalT (Bos taurus, UniProt P14769).
T1 construct: made in house
T1 sequence (P14769 whole entry): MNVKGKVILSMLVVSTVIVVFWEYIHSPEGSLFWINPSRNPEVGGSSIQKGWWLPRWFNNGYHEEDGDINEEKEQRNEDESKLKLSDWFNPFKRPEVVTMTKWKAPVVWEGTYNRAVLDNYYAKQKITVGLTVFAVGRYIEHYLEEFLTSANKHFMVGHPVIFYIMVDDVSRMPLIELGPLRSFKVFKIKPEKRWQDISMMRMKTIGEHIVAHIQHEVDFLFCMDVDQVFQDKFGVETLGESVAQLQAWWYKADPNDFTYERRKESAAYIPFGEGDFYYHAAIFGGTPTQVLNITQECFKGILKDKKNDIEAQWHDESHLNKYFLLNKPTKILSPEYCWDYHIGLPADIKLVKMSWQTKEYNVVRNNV
As to the kind of experiment: Donor kinetics of UDP-Gal derivatives with GalT, HPLC. It counts as biochemical. The note with it: MnCl2 20 mM, MOPS pH 7.2, 37° C. As for the experimental part: J. Am. Chem. Soc. 122, 261-1269 (2000); Rich, J. R.; Szpacenko, A.; Palcic, M. M. & Bundle, D. R. Glycosyltransferase-Catalyzed Synthesis of Thiooligosaccharides. Angew. Chem. Int. Ed. […] ChemBioChem 9, 1632-1640 (2008). […] (total volume 100 μL, all concentrations are final concentrations). The reactions were stopped by cooling in dry ice. Samples were analysed immediately by HPLC on a PerkinElmer Series 200 machine equipped with a Supelcosil LC-18-T column (5 μm, 25 cm×4.6 mm), a column oven (set to 30° C.), and a diode array detector. Each sample (injection volume 40 μL) was eluted at 1.5 mL/min with a gradient of methanol (10-30%) against 0.5 M phosphate buffer (adjusted to pH 8 with triethylamine). […] Km and vmax values were determined by fitting data points to a Michaelis-Menten curve using GraFit 5.0.10.

Data set [4] can be described thus: Quantum yield determination of UDP-Gal derivatives 3a-d. It counts as physicochemical. The note with it: in H2O.
Method: To determine quantum yields, for each absorbance and fluorescence spectrum the area under the curve (AUC) was calculated by numerical integration, applying the mid-point rule. For each compound, AUCabs and AUCfluo were then plotted over compound concentration according to AUCabs=A×[conc]+B (equation 1) and AUCfluo=A′×[conc]+B′ (equation 2). […] The quantum yields for reference compounds were used to calculate the general quantum yield φg for each compound 3a-d, according to φg=φref×(A′/A)/(A′/A)ref.

For `O=c1[nH]c(=O)n([C@@H]2O[C@H](COP(=O)(O)O)[C@@H](O)[C@H]2O)cc1-c1ccc(C(F)(F)F)cc1` [2i, 5-(4-Trifluoromethylphenyl)-uridine-5′-monophosphate], in data set [1], the “Fluo Intensity at 100 μM” value stood at 5.3 a.u, the λmax was found to be 280 nm and the Emmax was found to be 383 nm.
Take `O=c1[nH]c(=O)n([C@@H]2O[C@H](COP(=O)(O)O)[C@@H](O)[C@H]2O)cc1-c1ccccc1` [2a, 5-Phenyluridine-5′-monophosphate]: in data set [1], the “Fluo Intensity at 100 μM” value is recorded as 40 a.u, the λmax was determined as 278 nm and the Emmax is given as 403 nm.
Take `Cc1ccc(-c2cn([C@@H]3O[C@H](COP(=O)(O)O)[C@@H](O)[C@H]3O)c(=O)[nH]c2=O)cc1[N+](=O)[O-]` [2c]: in data set [1], the “Fluo Intensity at 100 μM” value amounted to 6.7 a.u, the λmax is 279 nm and the Emmax is 434 nm.
In the case of `COc1ccc(-c2cn([C@@H]3O[C@H](COP(=O)(O)O)[C@@H](O)[C@H]3O)c(=O)[nH]c2=O)cc1` [2l, 5-(4-Methoxyphenyl)-uridine-5′-monophosphate], in data set [1], the “Fluo Intensity at 100 μM” value was 603 a.u, the λmax is on record as 279 nm and the Emmax was 444 nm. For the same compound, in data set [2], the Q.Y. amounted to 0.02.
Consider `O=c1[nH]c(=O)n([C@@H]2O[C@H](COP(=O)(O)O)[C@@H](O)[C@H]2O)cc1-c1ccc2ccccc2c1` [2g, 5-(2-Naphtyl)-uridine-5′-monophosphate], for which, in data set [1], the “Fluo Intensity at 100 μM” value was 32.2 a.u, the λmax was 221 nm and the Emmax is 450 nm.
As for `O=c1[nH]c(=O)n([C@@H]2O[C@H](COP(=O)(O)O)[C@@H](O)[C@H]2O)cc1-c1ccco1` [2m, 5-(Furan-2-yl)-uridine-5′-monophosphate], in data set [1], the “Fluo Intensity at 100 μM” value is listed as 497 a.u, the λmax is listed as 314 nm and the Emmax amounted to 437 nm. This compound came in with a Q.Y. in data set [2] of 0.04.
In the case of `O=C(O)c1ccc(-c2cn([C@@H]3O[C@H](COP(=O)(O)O)[C@@H](O)[C@H]3O)c(=O)[nH]c2=O)cc1` [2h, 5-(4-Carboxyphenyl)-uridine-5′-monophosphate], in data set [1], the “Fluo Intensity at 100 μM” value came to 17.6 a.u, the λmax is recorded as 283 nm and the Emmax is recorded as 411 nm.
As for `O=Cc1ccc(-c2cn([C@@H]3O[C@H](COP(=O)(O)O)[C@@H](O)[C@H]3O)c(=O)[nH]c2=O)o1` [2n], in data set [1], the “Fluo Intensity at 100 μM” value is 640 a.u, the λmax is recorded as 348 nm and the Emmax is given as 431 nm. In data set [2], this compound had a Q.Y. of 0.04.
The like results for `O=c1[nH]c(=O)n([C@@H]2O[C@H](COP(=O)(O)O)[C@@H](O)[C@H]2O)cc1-c1ccc(Cl)cc1` [2b, 5-(4-Chlorophenyl)-uridine-5′-monophosphate] were, in that order, 78 a.u, 281 nm, 398 nm and 0.001.
For `O=Cc1ccsc1-c1cn([C@@H]2O[C@H](COP(=O)(O)O)[C@@H](O)[C@H]2O)c(=O)[nH]c1=O` [2o, 5-(3-Formylthien-2-yl)-uridine-5′-monophosphate] the same measures were 387 a.u, 267 nm, 453 nm and 0.02.
On to `CC(C)(C)OC(=O)NCc1cccc(-c2cn([C@@H]3O[C@H](COP(=O)(O)O)[C@@H](O)[C@H]3O)c(=O)[nH]c2=O)c1` [2d, 5-(3-N-BOC-aminomethylphenyl)-uridine-5′-monophosphate], for which, in data set [1], the “Fluo Intensity at 100 μM” value was found to be 11.6 a.u, the λmax amounted to 281 nm and the Emmax is recorded as 427 nm.
In data set [1], `O=c1[nH]c(=O)n([C@@H]2O[C@H](COP(=O)(O)O)[C@@H](O)[C@H]2O)cc1I` [compound 1, 5-Iodouridine-5′-monophosphate] returned a λmax of 262 nm and an Emmax of 377 nm.
On to `CS(=O)(=O)c1cccc(-c2cn([C@@H]3O[C@H](COP(=O)(O)O)[C@@H](O)[C@H]3O)c(=O)[nH]c2=O)c1` [2k, 5-(3-Methanesulfonylphenyl)-uridine-5′-monophosphate], for which, in data set [1], the “Fluo Intensity at 100 μM” value is 5.3 a.u, the λmax was found to be 278 nm and the Emmax came to 382 nm.
For the compound `O=c1[nH]c(=O)n([C@@H]2O[C@H](COP(=O)(O)OP(=O)(O)O[C@H]3O[C@H](CO)[C@H](O)[C@H](O)[C@H]3O)[C@@H](O)[C@H]2O)cc1-c1ccco1` [3c, 5-(2-Furyl)-UDP-α-D-galactose], in data set [3], the Km amounted to 69 ± 13 µM and the kcat is 0.0044 s⁻¹. In addition, the Quantum yield in data set [4] was 0.04.
`O=c1[nH]c(=O)n([C@@H]2O[C@H](COP(=O)(O)O)[C@@H](O)[C@H]2O)cc1-c1cccc(O)c1` [2e, 5-(3-Hydroxyphenyl)-uridine-5′-monophosphate]: in data set [1], the λmax came to 285 nm.
In the case of `COc1cncc(-c2cn([C@@H]3O[C@H](COP(=O)(O)O)[C@@H](O)[C@H]3O)c(=O)[nH]c2=O)c1` [2j, 5-(5-Methoxy-3-pyridyl)-uridine-5′-monophosphate], in data set [1], the “Fluo Intensity at 100 μM” value was 74.8 a.u, the λmax is on record as 289 nm and the Emmax is reported as 414 nm.
With `O=c1[nH]c(=O)n([C@@H]2O[C@H](COP(=O)(O)O)[C@@H](O)[C@H]2O)cc1-c1ccccc1O` [2f, 5-(2-Hydroxyphenyl)-uridine-5′-monophosphate], in data set [1], the “Fluo Intensity at 100 μM” value is on record as 0.9 a.u, the λmax worked out at 273 nm and the Emmax turned out to be 415 nm.
With `CC(=O)c1ccc(-c2cn([C@@H]3O[C@H](COP(=O)(O)O)[C@@H](O)[C@H]3O)c(=O)[nH]c2=O)s1` [2p, 5-(5-Acetylthien-2-yl)-uridine-5′-monophosphate], in data set [1], the “Fluo Intensity at 100 μM” value was more than 650 a.u, the λmax was 348 nm and the Emmax amounted to 433 nm. For the same compound, in data set [2], the “Brightness relative to any other reported 5-aryl/heteroaryl nucleotide analogues” value was found to be 10 fold and the Q.Y. is 0.24.
For the compound `COc1ccc(-c2cn([C@@H]3O[C@H](COP(=O)(O)OP(=O)(O)O[C@H]4O[C@H](CO)[C@H](O)[C@H](O)[C@H]4O)[C@@H](O)[C@H]3O)c(=O)[nH]c2=O)cc1` [3b, 5-(4-Methoxyphenyl)-UDP-α-D-galactose], in data set [3], the Km came out at 82 ± 11 µM and the kcat was determined as 0.004 s⁻¹. Further, in data set [4], the Quantum yield is given as 0.024.
The like results for `O=c1[nH]c(=O)n([C@@H]2O[C@H](COP(=O)(O)OP(=O)(O)O[C@H]3O[C@H](CO)[C@H](O)[C@H](O)[C@H]3O)[C@@H](O)[C@H]2O)cc1-c1ccccc1` [3a, 5-Phenyl UDP-α-D-galactose] were, in that order, 96 ± 8 µM, 0.0021 s⁻¹ and less than 0.01.

For the origin of these results see patent US9018370B2, “Derivatives of uridine phosphate and their uses in protein binding assays” (King's College London of Strand, priority 2009, dated 2015).
